Experimental data from ChEMBL document CHEMBL1201862, “PubChem BioAssay data set” (2004).
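How tested: cells in 96-well plates exposed to compound for 48 hours at five concentrations. GI50: concentration for 50% inhibition of growth.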 The source made the active and inactive calls. Cut-off read from the data, not from the text of the source: active = GI50 up to about 1.1 µM and inactive = higher.

Legend:
Experiment in all cases: NCI-60 cell line screen, 48 h
OVCAR-5 = system: OVCAR-5
MOLT-4 = system: MOLT-4
NCI-H23 = system: NCI-H23
HCT-15 = system: HCT-15
OVCAR-8 = system: OVCAR-8
NCI-H522 = system: NCI-H522
UACC-62 = system: UACC-62
HL-60 = system: HL-60
SK-MEL-28 = system: SK-MEL-28
UACC-257 = system: UACC-257
HCC 2998 = system: HCC 2998
U-251 = system: U-251
SK-MEL-2 = system: SK-MEL-2
A549 = system: A549
OVCAR-4 = system: OVCAR-4
SF-295 = system: SF-295
KM12 = system: KM12
UO-31 = system: UO-31
Malme-3M = system: Malme-3M
SNB-19 = system: SNB-19

Measured: GI50

Cc1c2ccncc2cc2c1[nH]c1ccccc12
inactive: OVCAR-5 4.34 µM | MOLT-4 1.98 µM | NCI-H23 4.08 µM | OVCAR-8 3.44 µM | NCI-H522 3.92 µM | UACC-62 5.11 µM | HL-60 3.41 µM | SK-MEL-28 3.85 µM | UACC-257 5.55 µM | HCC 2998 5.04 µM | U-251 2.86 µM | SK-MEL-2 7.43 µM | A549 3.22 µM | OVCAR-4 6.12 µM | SF-295 5.02 µM | KM12 4.56 µM | UO-31 3.45 µM | Malme-3M 7.05 µM | SNB-19 5.71 µM
4.2 µM: HCT-15

CCOC(=O)COc1cccc2occc(=O)c12
> 100 µM: HCT-15
inactive: OVCAR-5 > 100 µM | MOLT-4 > 100 µM | NCI-H23 > 100 µM | OVCAR-8 > 100 µM | NCI-H522 > 100 µM | UACC-62 > 100 µM | HL-60 > 100 µM | SK-MEL-28 > 100 µM | UACC-257 > 100 µM | HCC 2998 > 100 µM | U-251 > 100 µM | SK-MEL-2 > 100 µM | A549 > 100 µM | OVCAR-4 > 100 µM | SF-295 > 100 µM | KM12 > 100 µM | UO-31 > 100 µM | Malme-3M > 100 µM | SNB-19 > 100 µM

O=C(NC(COC(=O)C(Cc1ccccc1)NC(=O)c1ccccc1)Cc1ccccc1)c1ccccc1 (stereo not given)
> 50 µM: HCT-15
inactive: OVCAR-5 > 50 µM | MOLT-4 > 50 µM | NCI-H23 > 50 µM | OVCAR-8 > 50 µM | NCI-H522 > 50 µM | UACC-62 > 50 µM | HL-60 > 50 µM | SK-MEL-28 > 50 µM | UACC-257 > 50 µM | HCC 2998 > 50 µM | U-251 35 µM | SK-MEL-2 > 50 µM | A549 > 50 µM | OVCAR-4 > 50 µM | SF-295 32.7 µM | KM12 > 50 µM | UO-31 > 50 µM | Malme-3M > 50 µM | SNB-19 25.6 µM

COC1OC(=O)[C@H]2O[N+]([O-])=C(C)[C@@H]12 (stereo not given in full)
inactive: OVCAR-5 > 100 µM | MOLT-4 > 100 µM | NCI-H23 > 100 µM | OVCAR-8 > 100 µM | NCI-H522 > 100 µM | UACC-62 > 100 µM | HL-60 > 100 µM | SK-MEL-28 > 100 µM | UACC-257 > 100 µM | HCC 2998 > 100 µM | U-251 > 100 µM | SK-MEL-2 > 100 µM | A549 > 100 µM | OVCAR-4 > 100 µM | SF-295 > 100 µM | KM12 > 100 µM | UO-31 > 100 µM | Malme-3M > 100 µM | SNB-19 > 100 µM
> 100 µM: HCT-15

N#CC1(C#N)C2C=CC(C3CCC=C32)C1(C#N)C#N (stereo not given)
inactive: OVCAR-5 > 10 µM | MOLT-4 2.14 µM | NCI-H23 > 10 µM | OVCAR-8 > 10 µM | NCI-H522 2.96 µM | UACC-62 > 10 µM | HL-60 1.68 µM | SK-MEL-28 > 10 µM | UACC-257 > 10 µM | HCC 2998 > 10 µM | U-251 > 10 µM | SK-MEL-2 > 10 µM | A549 > 10 µM | OVCAR-4 > 10 µM | SF-295 > 10 µM | KM12 > 10 µM | UO-31 > 4.32 µM | Malme-3M 2.57 µM | SNB-19 > 10 µM
> 10 µM: HCT-15

OCC1OC(n2ccc3cnccc32)CC1O (stereo not given)
> 100 µM: HCT-15
inactive: OVCAR-5 > 100 µM | MOLT-4 > 100 µM | NCI-H23 > 100 µM | OVCAR-8 > 100 µM | NCI-H522 > 100 µM | UACC-62 > 100 µM | HL-60 > 100 µM | SK-MEL-28 > 100 µM | UACC-257 > 100 µM | HCC 2998 > 100 µM | U-251 > 100 µM | SK-MEL-2 > 100 µM | A549 > 100 µM | OVCAR-4 > 100 µM | SF-295 > 100 µM | KM12 > 100 µM | UO-31 > 100 µM | Malme-3M > 100 µM | SNB-19 > 100 µM

NC1CCCCC1.O=P(O)(O)C(CSc1ccccc1)P(=O)(O)O
inactive: OVCAR-5 > 100 µM | MOLT-4 > 100 µM | NCI-H23 > 100 µM | OVCAR-8 > 100 µM | NCI-H522 > 100 µM | UACC-62 > 100 µM | HL-60 > 100 µM | SK-MEL-28 > 100 µM | UACC-257 > 100 µM | HCC 2998 > 100 µM | U-251 > 100 µM | SK-MEL-2 > 100 µM | A549 > 100 µM | OVCAR-4 > 100 µM | SF-295 > 100 µM | KM12 > 100 µM | UO-31 > 100 µM | Malme-3M > 100 µM | SNB-19 > 100 µM
> 100 µM: HCT-15

CN(C)c1n/c(=N/c2ccc(/N=c3\nc(N(C)C)ss3)cc2)ss1
27 µM: HCT-15
inactive: OVCAR-5 > 100 µM | MOLT-4 8.49 µM | NCI-H23 12.4 µM | OVCAR-8 16.7 µM | NCI-H522 11.5 µM | UACC-62 3.38 µM | HL-60 12.4 µM | SK-MEL-28 16.8 µM | UACC-257 27.5 µM | HCC 2998 > 83 µM | U-251 29.9 µM | SK-MEL-2 69.5 µM | A549 37.9 µM | OVCAR-4 20 µM | SF-295 39.8 µM | KM12 47.3 µM | UO-31 44 µM | Malme-3M 22.5 µM | SNB-19 32.4 µM

COc1ccc(C2COc3cc(O)c(O)cc3C2)cc1 (stereo not given)
inactive: OVCAR-5 148 µM | MOLT-4 6.58 µM | NCI-H23 17.7 µM | OVCAR-8 13.3 µM | NCI-H522 4.84 µM | UACC-62 14.1 µM | HL-60 1.58 µM | SK-MEL-28 10.7 µM | UACC-257 27.4 µM | HCC 2998 21.4 µM | U-251 13.7 µM | SK-MEL-2 54.6 µM | A549 48.8 µM | OVCAR-4 12.1 µM | SF-295 37.6 µM | KM12 39.7 µM | UO-31 56.2 µM | Malme-3M 15.3 µM | SNB-19 24.8 µM
10.2 µM: HCT-15

C=CCNC(=S)N/N=C1\C(=O)Nc2ccc([N+](=O)[O-])cc21
inactive: OVCAR-5 > 100 µM | MOLT-4 16.7 µM | NCI-H23 38.6 µM | OVCAR-8 50.5 µM | NCI-H522 64.1 µM | UACC-62 > 100 µM | HL-60 54.7 µM | SK-MEL-28 > 100 µM | UACC-257 71 µM | HCC 2998 23.3 µM | U-251 64.3 µM | SK-MEL-2 > 100 µM | A549 34.2 µM | OVCAR-4 41.4 µM | SF-295 29 µM | KM12 46.6 µM | UO-31 31.2 µM | Malme-3M > 100 µM | SNB-19 55.7 µM
7.57 µM: HCT-15
